Here are results for 26 compounds from paper PMC6155837, “Design, Synthesis, and Biological Evaluation of a New Series of Biphenyl/Bibenzyl Derivatives Functioning as Dual Inhibitors of Acetylcholinesterase and Butyrylcholinesterase” (Molecules : A Journal of Synthetic Chemistry and Natural …, 2017).

Like-named read-outs stand apart in the source and are kept apart here. A value given as a limit tells only on which side of the number the result lay.

One experiment has as its target T1, AChE (from rat brain) (Rattus norvegicus, UniProt P37136).
T1 construct: rat AChE purified from the rat brain; from tissue; host or cells: rat brain
The experiment is described as follows: biochemical. It is filed as biochemical. As to the method:
(§1) All of the assay of acetylcholinesterase (AChE) and butyrylcholinesterase (BuChE) were performed according to the method described by Ellman et al. using the rat AChE purified from the rat brain and human BuChE purified by human serum. In an enzymatic reaction medium contained different concentration of tested compounds and AChE suspended in the phosphate buffer solution at pH 7.2. After 30 min at room temperature, acetylthiocholine iodide and 5.5′-dithiobis-2-nitrobenzoic acid (DNTB) were added and the reaction mixture incubated at 37 °C for 60 min. […] The parallel control experiment was carried without tested compounds in the reaction mixture. For BuChE inhibitory assay, the procedure described above was followed except for the use of enzyme and substrate, instead of which butyrylcholinesterase and butyrylthiocholine chloride were used, respectively. Assays were done with a blank containing all compounds except AChE or BuChE in order to account for nonenzymatic reactions. Each inhibitory test was conducted in triplicate. […] Each concentration was assayed in triplicate and data were expressed as the mean ± SEM.

The target in a further experiment is T2, BuChE (from human serum) (Homo sapiens, UniProt P06276).
T2 construct: human BuChE purified by human serum; from tissue; host or cells: human serum
T2 sequence (P06276 29-602): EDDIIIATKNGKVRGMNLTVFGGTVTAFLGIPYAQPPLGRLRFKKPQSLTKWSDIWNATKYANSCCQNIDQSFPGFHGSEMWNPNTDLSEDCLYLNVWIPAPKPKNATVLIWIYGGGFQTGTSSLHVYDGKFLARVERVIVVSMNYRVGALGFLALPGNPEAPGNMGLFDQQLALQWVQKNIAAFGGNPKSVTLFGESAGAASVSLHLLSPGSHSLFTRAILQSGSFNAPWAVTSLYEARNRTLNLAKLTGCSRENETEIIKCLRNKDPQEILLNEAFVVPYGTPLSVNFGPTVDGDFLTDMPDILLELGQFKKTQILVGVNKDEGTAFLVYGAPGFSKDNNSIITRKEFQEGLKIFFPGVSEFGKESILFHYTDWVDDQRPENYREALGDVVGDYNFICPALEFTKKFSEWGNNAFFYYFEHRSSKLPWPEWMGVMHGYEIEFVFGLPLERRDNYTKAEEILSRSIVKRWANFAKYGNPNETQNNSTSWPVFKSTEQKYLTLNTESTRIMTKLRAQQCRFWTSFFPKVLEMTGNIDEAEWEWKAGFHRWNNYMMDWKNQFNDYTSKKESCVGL
The experiment is described as follows: biochemical. On the procedure: as §1

Setting [1] is: AChE from rat brain, footnote d: inactive up to 100 µM/L, read-out: IC50 µM ± SEM AChE.
Setting [2] is: BuChE from human serum, means ± SEM of three experiments, read-out: IC50 µM ± SEM BuChE.
Setting [3] is: AChE from rat brain, means ± SEM of three experiments, read-out: IC50 µM ± SEM AChE.

T1 sequence (P37136 32-614): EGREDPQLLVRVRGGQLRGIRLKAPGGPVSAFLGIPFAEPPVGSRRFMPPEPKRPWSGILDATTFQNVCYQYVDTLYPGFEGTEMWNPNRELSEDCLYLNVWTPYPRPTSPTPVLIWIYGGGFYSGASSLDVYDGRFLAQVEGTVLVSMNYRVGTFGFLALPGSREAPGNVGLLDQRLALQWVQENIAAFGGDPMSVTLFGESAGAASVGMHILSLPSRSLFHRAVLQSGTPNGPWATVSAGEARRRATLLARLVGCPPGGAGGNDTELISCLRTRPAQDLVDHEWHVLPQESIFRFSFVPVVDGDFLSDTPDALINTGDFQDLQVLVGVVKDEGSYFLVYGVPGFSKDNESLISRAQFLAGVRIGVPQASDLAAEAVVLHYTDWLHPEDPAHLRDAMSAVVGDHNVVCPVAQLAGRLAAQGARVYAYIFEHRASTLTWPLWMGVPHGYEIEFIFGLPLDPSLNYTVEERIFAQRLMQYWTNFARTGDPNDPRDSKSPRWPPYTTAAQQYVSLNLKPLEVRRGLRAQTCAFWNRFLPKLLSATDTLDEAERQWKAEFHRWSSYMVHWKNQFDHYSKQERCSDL

The IC50 is the concentration at which inhibition is half-maximal. As for `CN(C)CCC(=O)c1ccc(-c2ccc(C(=O)CCN(C)C)cc2)cc1` [Compound 1, 4,4′-bi-(β-dimethylamino-propinoyl)-biphenyl], the IC50 on AChE (from rat brain) is 0.75 µM; on BuChE (from human serum), 0.19 µM.
Regarding `CN(C)CC(=O)c1ccc(-c2ccc(C(=O)CN(C)C)cc2)cc1` [Compound 12, 1,1′-([1,1′-Biphenyl]-4,4′-diyl)bis(2-(dimethylamino)ethanone)], the IC50 is more than 100 µM at AChE (from rat brain) (setting [1]) and 91.7 ± 15.7 µM at BuChE (from human serum) (setting [2]).
For `O=C(CN1CCCCC1)c1ccc(-c2ccc(C(=O)CN3CCCCC3)cc2)cc1` [Compound 13, 1,1′-([1,1′-Biphenyl]-4,4′-diyl)bis(2-(piperidin-1-yl)ethanone)], the results for the half-inhibitory concentration (IC50) on AChE (from rat brain) (setting [1]) and on BuChE (from human serum) were more than 100 µM and 71.7 ± 3.01 µM, respectively.
Consider `O=C(CN1CCOCC1)c1ccc(-c2ccc(C(=O)CN3CCOCC3)cc2)cc1` [Compound 14, 1,1′-([1,1′-Biphenyl]-4,4′-diyl)bis(2-morpholinoethanone)], for which the half-maximal inhibitory concentration (IC50) is more than 100 µM against AChE (from rat brain) and 1.44 ± 0.23 µM at BuChE (from human serum) (setting [2]).
On to `CCN(CC)CCC(=O)c1ccc(-c2ccc(C(=O)CCN(CC)CC)cc2)cc1` [Compound 15, 4,4′-Bis(β-diethylamino-propinoyl)-biphenyl], for which the results for the concentration for half-maximal inhibition (IC50) at AChE (from rat brain) and at BuChE (from human serum) were 1.18 ± 0.29 µM and 0.74 ± 0.09 µM, respectively.
For `CCCN(CCC)CCC(=O)c1ccc(-c2ccc(C(=O)CCN(CCC)CCC)cc2)cc1` [Compound 16, 4,4′-Bis(β-dipropylamino-propinoyl)-biphenyl], in that order: 0.88 ± 0.17 µM and 2.83 ± 0.5 µM.
On to `O=C(CCN1CCC1)c1ccc(-c2ccc(C(=O)CCN3CCC3)cc2)cc1` [Compound 17, 4,4′-Bis(β-azetidin-propinoyl)-biphenyl], for which the values for the IC50 on AChE (from rat brain) and on BuChE (from human serum) were 0.71 ± 0.06 µM and 2.39 ± 0.75 µM, respectively.
For the compound `O=C(CCN1CCCC1)c1ccc(-c2ccc(C(=O)CCN3CCCC3)cc2)cc1` [Compound 18, 4,4′-Bis(β-pyrrolidin-propinoyl)-biphenyl], the IC50 on AChE (from rat brain) is 0.33 ± 0.06 µM; against BuChE (from human serum), 1.16 ± 0.09 µM.
For `O=C(CCN1CCCCC1)c1ccc(-c2ccc(C(=O)CCN3CCCCC3)cc2)cc1` [Compound 19], the figures for the IC50 at AChE (from rat brain) and on BuChE (from human serum) were 0.096 ± 0.006 µM and 1.25 ± 0.15 µM, respectively. Also, at AChE (from rat brain) (relative to compound 1), the “fold more potent than the lead compound (1) for inhibiting AChE” value is on record as “eight”.
Consider `O=C(CCN1CCOCC1)c1ccc(-c2ccc(C(=O)CCN3CCOCC3)cc2)cc1` [Compound 20], for which the IC50 against AChE (from rat brain) came out at 0.97 ± 0.08 µM; against BuChE (from human serum), 0.72 ± 0.1 µM.
For `O=C(CCN1CCCCCC1)c1ccc(-c2ccc(C(=O)CCN3CCCCCC3)cc2)cc1` [Compound 21, 4,4′-Bis(β-azepan-propinoyl)-biphenyl], the half-inhibitory concentration (IC50) was 1.43 ± 0.33 µM against AChE (from rat brain) and 1.94 ± 0.07 µM at BuChE (from human serum).
As for `CN1CCN(CCC(=O)c2ccc(-c3ccc(C(=O)CCN4CCN(C)CC4)cc3)cc2)CC1` [Compound 22, 4,4′-Bis(β-4-methylpiperazin-propinoyl)-biphenyl], the values for the IC50 against AChE (from rat brain) and at BuChE (from human serum) were 1.61 ± 0.38 µM and 13.8 ± 0.81 µM, respectively.
For the compound `O=C(CCCN1CCCCC1)c1ccc(-c2ccc(C(=O)CCCN3CCCCC3)cc2)cc1` [Compound 23, 1,1′-([1,1′-Biphenyl]-4,4′-diyl)bis(4-(piperidin-1-yl)butan-1-one)], the half-inhibitory concentration (IC50) is 1.32 ± 0.43 µM on AChE (from rat brain) and 5.9 ± 0.4 µM at BuChE (from human serum).
Consider `O=C(CCCCN1CCCCC1)c1ccc(-c2ccc(C(=O)CCCCN3CCCCC3)cc2)cc1` [Compound 24, 1,1′-([1,1′-Biphenyl]-4,4′-diyl)bis(5-(piperidin-1-yl)pentan-1-one)], for which the values for the concentration for half-maximal inhibition (IC50) against AChE (from rat brain) and against BuChE (from human serum) were 0.82 ± 0.16 µM and 2.65 ± 0.11 µM, respectively.
For the compound `CN(C)CC(=O)c1ccc(CCc2ccc(C(=O)CN(C)C)cc2)cc1` [Compound 25, 1,1′-(Ethane-1,2-diylbis(4,1-phenylene))bis(2-(dimethylamino)ethanone)], the IC50 was 62.3 ± 14.5 µM on AChE (from rat brain) and 9.11 ± 2.55 µM at BuChE (from human serum).
With `O=C(CN1CCCCC1)c1ccc(CCc2ccc(C(=O)CN3CCCCC3)cc2)cc1` [Compound 26, 1,1′-(Ethane-1,2-diylbis(4,1-phenylene))bis(2-(piperidin-1-yl)ethanone)], the concentration for half-maximal inhibition (IC50) came to 74.5 ± 8.5 µM on AChE (from rat brain) (setting [3]) and 20.7 ± 5.44 µM at BuChE (from human serum).
Regarding `CN1CCN(CC(=O)c2ccc(CCc3ccc(C(=O)CN4CCN(C)CC4)cc3)cc2)CC1` [Compound 27, 1,1′-(Ethane-1,2-diylbis(4,1-phenylene))bis(2-(4-methylpiperazin-1-yl)ethanone)], the results for the IC50 at AChE (from rat brain) and on BuChE (from human serum) were 74.1 ± 11.5 µM and 66.5 ± 17 µM, respectively.
Take `O=C(CN1CCOCC1)c1ccc(CCc2ccc(C(=O)CN3CCOCC3)cc2)cc1` [Compound 28]: the IC50 is more than 100 µM on AChE (from rat brain) (setting [1]) and 6.3 ± 1.6 µM on BuChE (from human serum) (setting [2]).
`CN(C)CCC(=O)c1ccc(CCc2ccc(C(=O)CCN(C)C)cc2)cc1` [Compound 29, 1,1′-(Ethane-1,2-diylbis(4,1-phenylene))bis(3-(dimethylamino)propan-1-one)]: the 50% inhibitory concentration (IC50) at AChE (from rat brain) turned out to be 2.62 ± 0.63 µM; against BuChE (from human serum) it was 1.21 ± 0.22 µM.
Regarding `O=C(CCN1CCCCC1)c1ccc(CCc2ccc(C(=O)CCN3CCCCC3)cc2)cc1` [Compound 30, 1,1′-(Ethane-1,2-diylbis(4,1-phenylene))bis(3-(piperidin-1-yl)propan-1-one)], the values for the IC50 on AChE (from rat brain) and on BuChE (from human serum) (setting [2]) were 0.5 ± 0.06 µM and 3.14 ± 0.24 µM, respectively.
In the case of `O=C(CCN1CCOCC1)c1ccc(CCc2ccc(C(=O)CCN3CCOCC3)cc2)cc1` [Compound 31, 1,1′-(Ethane-1,2-diylbis(4,1-phenylene))bis(3-morpholinopropan-1-one)], the IC50 on AChE (from rat brain) worked out at 3.53 ± 0.79 µM; against BuChE (from human serum) it was 6.38 ± 1.26 µM.
Take `O=C(CCCN1CCCCC1)c1ccc(CCc2ccc(C(=O)CCCN3CCCCC3)cc2)cc1` [Compound 32, 1,1′-(Ethane-1,2-diylbis(4,1-phenylene))bis(4-(piperidin-1-yl)butan-1-one)]: the IC50 against AChE (from rat brain) came to 3.67 ± 0.92 µM; on BuChE (from human serum), 19.2 ± 4.78 µM.
On to `O=C(CCCCN1CCCCC1)c1ccc(CCc2ccc(C(=O)CCCCN3CCCCC3)cc2)cc1` [Compound 33, 1,1′-(Ethane-1,2-diylbis(4,1-phenylene))bis(5-(piperidin-1-yl)pentan-1-one)], for which the IC50 at AChE (from rat brain) amounted to 0.19 ± 0.08 µM; against BuChE (from human serum) it was 1.64 ± 0.27 µM.
As for `OC(CCN1CCCCC1)c1ccc(-c2ccc(C(O)CCN3CCCCC3)cc2)cc1` (centres unmarked) [Compound 34, 1,1′-([1,1′-Biphenyl]-4,4′-diyl)bis(3-(piperidin-1-yl)propan-1-ol)], the concentration for half-maximal inhibition (IC50) is 31.7 ± 10.2 µM against AChE (from rat brain) and 13.8 ± 1.59 µM at BuChE (from human serum).
Regarding `OC(CCN1CCOCC1)c1ccc(-c2ccc(C(O)CCN3CCOCC3)cc2)cc1` (centres unmarked) [Compound 35, 1,1′-([1,1′-Biphenyl]-4,4′-diyl)bis(3-morpholinopropan-1-ol)], the IC50 at AChE (from rat brain) (setting [1]) was more than 100 µM; at BuChE (from human serum) (BuChE from human serum, footnote d: inactive up to 100 µM/L, read-out: IC50 µM ± SEM BuChE), more than 100 µM.
Regarding `OC(CCN1CCCCC1)c1ccc(CCc2ccc(C(O)CCN3CCCCC3)cc2)cc1` (centres unmarked) [Compound 36, 1,1′-(Ethane-1,2-diylbis(4,1-phenylene))bis(3-(piperidin-1-yl)propan-1-ol)], the results for the half-inhibitory concentration (IC50) at AChE (from rat brain) (setting [3]) and at BuChE (from human serum) (setting [2]) were 74.9 ± 35.6 µM and 25.9 ± 6.81 µM, respectively.
